How the values were obtained:
[1] = molecular target: T1, HumRadA2 (Pyrococcus furiosus, UniProt O74036, I169M/Y201A/V202Y/E219S/D220A/K221M/DEL288-301); experiment: ITC; type: binding; conditions: 25 °C, 50 mM Tris pH 7.5, 100 mM NaCl, 5 mM MgCl2; read-out: HumRadA2 / K D/μM
T1 construct: gene radA; humanised monomeric C-terminal ATPase domain of RadA; six FxxA-site mutations; E. coli BL21(DE3)

[2] = molecular target: T2, RAD51–BRC4 (Homo sapiens, UniProt Q06609); experiment: ITC; type: binding; conditions: read-out: RAD51-BRC4 / K D/μM
T2 construct: monomerised fusion: BRC repeat 4 of BRCA2 covalently linked to the N terminus of the human RAD51 ATPase domain; with Breast cancer type 2 susceptibility protein (BRC repeat 4)
T2 sequence (Q06609 97-339 limits assumed): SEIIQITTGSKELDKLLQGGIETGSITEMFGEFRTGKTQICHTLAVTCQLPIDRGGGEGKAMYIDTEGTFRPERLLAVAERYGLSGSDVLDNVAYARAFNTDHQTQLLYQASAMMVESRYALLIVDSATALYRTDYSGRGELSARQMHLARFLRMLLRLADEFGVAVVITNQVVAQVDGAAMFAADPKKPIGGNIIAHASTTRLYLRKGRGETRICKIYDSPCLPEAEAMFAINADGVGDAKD
T2 sequence (P51587 1517-1551 partner limits assumed): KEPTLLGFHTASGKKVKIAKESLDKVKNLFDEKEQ

[3] = ITC; type: binding, Pyrococcus furiosus; conditions: 25 °C, 50 mM Tris pH 7.5, 100 mM NaCl, 5 mM MgCl2; read-out: RAD51-BRC4 / K D/μM

Structure (SMILES) | Kd [1] | Kd [2] | Kd [3]
Nc1ncnc2c1ncn2[C@@H]1O[C@H](COP(=O)(O)OP(=O)(O)O)[C@@H](O)[C@H]1O [ADP] | 0.54 µM | 1 µM | 
Nc1ncnc2c1ncn2[C@@H]1O[C@H](COP(=O)(O)OP(=O)(O)NP(=O)(O)O)[C@@H](O)[C@H]1O [AMPPNP] | 20 µM | 12 µM | 
Nc1ncnc2c1ncn2[C@@H]1O[C@H](COP(=O)(O)OP(=O)(O)OP(=O)(O)O)[C@@H](O)[C@H]1O [ATP] |  | 1 µM | 1 µM
Nc1nc2c(ncn2[C@@H]2O[C@H](COP(=O)(O)OP(=O)(O)O)[C@@H](O)[C@H]2O)c(=O)[nH]1 [GDP] | 0.21 µM | 2.5 µM | 
Nc1nc2c(ncn2[C@@H]2O[C@H](COP(=O)(O)OP(=O)(O)OP(=O)(O)O)[C@@H](O)[C@H]2O)c(=O)[nH]1 [GTP] | 0.64 µM | 5 µM | 

Reference: paper PMC4856416, “ATP half‐sites in RadA and RAD51 recombinases bind nucleotides” (FEBS Open Bio, 2016)
